# US20210290644A1, “COMPOUNDS AND METHODS FOR TREATING FUNGAL INFECTIONS” (Amplyx Pharmaceuticals, Inc., priority 2018, published 2021)
# “And” between values parts separate entries of the source, which are not always exact repeats. Identical values can stand only once. Like-named read-outs stand apart in the source and are kept apart here.
# How the values were obtained:
# [1] = Study #2 Phase 1: pharmacokinetics after single IV and single/multiple oral doses of Compound 1, absolute oral bioavailability;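 further: phase 1 study design: one IV dose, then escalating single oral doses, fed versus fasted single oral dosing, and once-daily oral dosing over 14 days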
# Excerpt: In the single ascending dose (SAD) phase, subjects in Cohort 1a received a single IV dose in Period A and then rising single oral doses in Periods B to D. Subjects in Cohort 1b received a single oral dose under fed and fasted conditions in Periods E and F. Subjects in Cohorts 2 and 3 received once-daily oral doses for 14 days, as did subjects in Cohort 4 as part of an in vivo screen for drug-drug interaction (DDI) potential.
# For SAD Cohorts 1a and 1b, urine samples for the determination of Compound 1A were collected through 48 hrs after dosing.
# Forty-six (46) subjects were enrolled into the study, 8 in Cohort 1a, 10 in Cohort 1b, and 8 each in Cohorts 2 and 3.
# clinical [2] = details: human, plasma, po, 400 mg
# Excerpt: Study #2 of Compound 1 was a Phase 1, double-blind, placebo-controlled, randomized study in healthy volunteers that consisted of a series of single and multiple dose treatments. In the single ascending dose (SAD) phase, subjects in Cohort 1a received a single IV dose in Period A and then rising single oral doses in Periods B to D. Subjects in Cohort 1b received a single oral dose under fed and fasted conditions in Periods E and F. Subjects in Cohorts 2 and 3 received once-daily oral doses for 14 days, as did subjects in Cohort 4 as part of an in vivo screen for drug-drug interaction (DDI) potential.
# Blood samples for the determination of Compound 1 and Compound 1A plasma concentrations were collected before and at appropriate times during all single and multiple dose administrations of Compound 1. For SAD Cohorts 1a and 1b, urine samples for the determination of Compound 1A were collected through 48 hrs after dosing.
# [3] = human, in vivo
# clinical [4] = details: both, human, iv; for clearance / half-life: in vivo
# [5] = oral Compound 1 QD × 14 days, 3 cohorts
# [6] = single oral doses of Compound 1 100 mg to 500 mg, fasted
smiles,measurement,setting,value
Nc1ncccc1-c1cc(Cc2ccc(COc3ccccn3)cc2)no1 [Compound 1A],AUC(0-inf),"[1]; human, plasma, iv, 200 mg",87.5 µg·h/mL
same,Vd,"[1]; human, plasma, iv, 200 mg",124 L and 1.6 L/kg
same,clearance,"[1]; human, plasma, iv, 200 mg",29.1 mL/min and 0.377 mL/min/kg
same,AUC(0-t),"[1]; human, plasma, iv, 200 mg, AUC(0-24), 200 mg/3 hr IV Compound 1, fasted, geometric mean",24.4 µg·h/mL
same,AUC(0-t),"[1]; human, plasma, iv, 200 mg, AUC(0-t), 200 mg/3 hr IV Compound 1, fasted, geometric mean",86.3 µg·h/mL
same,Cmax,"[1]; human, plasma, iv, 200 mg, 200 mg/3 hr IV Compound 1, fasted, geometric mean",2640 ng/mL
same,Tmax,"[1]; human, plasma, iv, 200 mg, Tmax, 200 mg/3 hr IV Compound 1, fasted, median",3 h
same,half-life,"[1]; human, plasma, iv, 200 mg, geometric mean t1/2, IV treatment, 200 mg Compound 1 over 3 hrs",49.1 h
same,half-life,"[1]; human, plasma, iv, 200 mg, t½, 200 mg/3 hr IV Compound 1, fasted, geometric mean",49.1 h
same,bioavailability,"[1]; human, plasma, oral",90.6 to 101%
same,AUC(0-t),"[1]; human, plasma, oral, 500 mg, AUC(0-24), Day 1, Cohort 2, 500 mg Tablets QD × 14 Days, fed, geometric mean",50.7 µg·h/mL
same,AUC(0-t),"[1]; human, plasma, oral, 500 mg, AUC(0-24), Day 7, Cohort 2, 500 mg Tablets QD × 14 Days, fed, geometric mean",154 µg·h/mL
same,AUC(0-t),"[1]; human, plasma, oral, 500 mg, AUC(0-24), Day 14, Cohort 2, 500 mg Tablets QD × 14 Days, fed, geometric mean",191 µg·h/mL
same,CL/F,"[1]; human, plasma, oral, 500 mg, CL, Day 14, Cohort 2, 500 mg Tablets QD × 14 Days, fed, geometric mean",0.462 mL/min/kg
same,Cmax,"[1]; human, plasma, oral, 500 mg, Day 1, Cohort 2, 500 mg Tablets QD × 14 Days, fed, geometric mean",6180 ng/mL
same,Cmax,"[1]; human, plasma, oral, 500 mg, Day 7, Cohort 2, 500 mg Tablets QD × 14 Days, fed, geometric mean",10900 ng/mL
same,Cmax,"[1]; human, plasma, oral, 500 mg, Day 14, Cohort 2, 500 mg Tablets QD × 14 Days, fed, geometric mean",12000 ng/mL
same,Tmax,"[1]; human, plasma, oral, 500 mg, Tmax, Day 1, Cohort 2, 500 mg Tablets QD × 14 Days, fed, median",4 h
same,Tmax,"[1]; human, plasma, oral, 500 mg, Tmax, Day 7, Cohort 2, 500 mg Tablets QD × 14 Days, fed, median",3.76 h
same,Tmax,"[1]; human, plasma, oral, 500 mg, Tmax, Day 14, Cohort 2, 500 mg Tablets QD × 14 Days, fed, median",3.75 h
same,half-life,"[1]; human, plasma, oral, 500 mg, T½, Day 14, Cohort 2, 500 mg Tablets QD × 14 Days, fed, geometric mean",73.4 h
same,AUC(0-t),"[1]; human, plasma, oral, 1000 mg, AUC(0-24), Day 1, Cohort 3, 1000 mg Tablets QD × 14 Days, fed, geometric mean",119 µg·h/mL
same,AUC(0-t),"[1]; human, plasma, oral, 1000 mg, AUC(0-24), Day 7, Cohort 3, 1000 mg Tablets QD × 14 Days, fed, geometric mean",316 µg·h/mL
same,AUC(0-t),"[1]; human, plasma, oral, 1000 mg, AUC(0-24), Day 14, Cohort 3, 1000 mg Tablets QD × 14 Days, fed, geometric mean",326 µg·h/mL
same,CL/F,"[1]; human, plasma, oral, 1000 mg, CL, Day 14, Cohort 3, 1000 mg Tablets QD × 14 Days, fed, geometric mean",0.582 mL/min/kg
same,Cmax,"[1]; human, plasma, oral, 1000 mg, Day 1, Cohort 3, 1000 mg Tablets QD × 14 Days, fed, geometric mean",10600 ng/mL
same,Cmax,"[1]; human, plasma, oral, 1000 mg, Day 7, Cohort 3, 1000 mg Tablets QD × 14 Days, fed, geometric mean",21300 ng/mL
same,Cmax,"[1]; human, plasma, oral, 1000 mg, Day 14, Cohort 3, 1000 mg Tablets QD × 14 Days, fed, geometric mean",21300 ng/mL
same,Tmax,"[1]; human, plasma, oral, 1000 mg, Tmax, Day 1, Cohort 3, 1000 mg Tablets QD × 14 Days, fed, median",4.5 h
same,Tmax,"[1]; human, plasma, oral, 1000 mg, Tmax, Day 7, Cohort 3, 1000 mg Tablets QD × 14 Days, fed, median",4 h
same,Tmax,"[1]; human, plasma, oral, 1000 mg, Tmax, Day 14, Cohort 3, 1000 mg Tablets QD × 14 Days, fed, median",3.77 h
same,half-life,"[1]; human, plasma, oral, 1000 mg, T½, Day 14, Cohort 3, 1000 mg Tablets QD × 14 Days, fed, geometric mean",52.6 h
same,bioavailability,"[1]; human, plasma, po, 100 mg",90.6%
same,Tmax,"[1]; human, plasma, po, 100 mg, Tmax, 100 mg Oral Compound 1, fasted, median",2 h
same,AUC(0-inf),"[1]; human, plasma, po, 300 mg",122 µg·h/mL
same,Vd/F,"[1]; human, plasma, po, 300 mg",142 L and 1.84 L/kg
same,bioavailability,"[1]; human, plasma, po, 300 mg",93.1%
same,AUC(0-t),"[1]; human, plasma, po, 300 mg, AUC(0-24), 300 mg Oral Compound 1, fasted, geometric mean",35.6 µg·h/mL
same,AUC(0-t),"[1]; human, plasma, po, 300 mg, AUC(0-t), 300 mg Oral Compound 1, fasted, geometric mean",118 µg·h/mL
same,CL/F,"[1]; human, plasma, po, 300 mg, CL/F, 300 mg Oral Compound 1, fasted, geometric mean",0.405 mL/min/kg
same,Cmax,"[1]; human, plasma, po, 300 mg, 300 mg Oral Compound 1, fasted, geometric mean",3750 ng/mL
same,Tmax,"[1]; human, plasma, po, 300 mg, Tmax, 300 mg Oral Compound 1, fasted, median",2.5 h
same,half-life,"[1]; human, plasma, po, 300 mg, t½, 300 mg Oral Compound 1, fasted, geometric mean",52.5 h
same,bioavailability,"[1]; human, plasma, po, 400 mg",101%
same,Tmax,"[1]; human, plasma, po, 400 mg, Tmax, 400 mg Oral Compound 1, fasted, median",2.5 h
same,AUC(0-inf),"[1]; human, plasma, po, 500 mg",205 µg·h/mL
same,Vd/F,"[1]; human, plasma, po, 500 mg",121 L and 1.62 L/kg
same,bioavailability,"[1]; human, plasma, po, 500 mg",93.5%
same,AUC(0-t),"[1]; human, plasma, po, 500 mg, AUC(0-24), 500 mg Oral Compound 1, fasted, geometric mean",59 µg·h/mL
same,AUC(0-t),"[1]; human, plasma, po, 500 mg, AUC(0-24), Day 1, Cohort 4, 500 mg Oral Solution QD × 14 Days, fed, geometric mean",56.7 µg·h/mL
same,AUC(0-t),"[1]; human, plasma, po, 500 mg, AUC(0-24), Day 7, Cohort 4, 500 mg Oral Solution QD × 14 Days, fed, geometric mean",140 µg·h/mL
same,AUC(0-t),"[1]; human, plasma, po, 500 mg, AUC(0-24), Day 14, Cohort 4, 500 mg Oral Solution QD × 14 Days, fed, geometric mean",153 µg·h/mL
same,AUC(0-t),"[1]; human, plasma, po, 500 mg, AUC(0-t), 500 mg Oral Compound 1, fasted, geometric mean",197 µg·h/mL
same,CL/F,"[1]; human, plasma, po, 500 mg, CL, Day 14, Cohort 4, 500 mg Oral Solution QD × 14 Days, fed, geometric mean",0.555 mL/min/kg
same,CL/F,"[1]; human, plasma, po, 500 mg, CL/F, 500 mg Oral Compound 1, fasted, geometric mean",0.418 mL/min/kg
same,Cmax,"[1]; human, plasma, po, 500 mg, 500 mg Oral Compound 1, fasted, geometric mean",6410 ng/mL
same,Cmax,"[1]; human, plasma, po, 500 mg, Day 1, Cohort 4, 500 mg Oral Solution QD × 14 Days, fed, geometric mean",5850 ng/mL
same,Cmax,"[1]; human, plasma, po, 500 mg, Day 7, Cohort 4, 500 mg Oral Solution QD × 14 Days, fed, geometric mean",10400 ng/mL
same,Cmax,"[1]; human, plasma, po, 500 mg, Day 14, Cohort 4, 500 mg Oral Solution QD × 14 Days, fed, geometric mean",12300 ng/mL
same,Tmax,"[1]; human, plasma, po, 500 mg, Tmax, 500 mg Oral Compound 1, fasted, median",3 h
same,Tmax,"[1]; human, plasma, po, 500 mg, Tmax, Day 1, Cohort 4, 500 mg Oral Solution QD × 14 Days, fed, median",2 h
same,Tmax,"[1]; human, plasma, po, 500 mg, Tmax, Day 7, Cohort 4, 500 mg Oral Solution QD × 14 Days, fed, median",2 h
same,Tmax,"[1]; human, plasma, po, 500 mg, Tmax, Day 14, Cohort 4, 500 mg Oral Solution QD × 14 Days, fed, median",1 h
same,half-life,"[1]; human, plasma, po, 500 mg, T½, Day 14, Cohort 4, 500 mg Oral Solution QD × 14 Days, fed, geometric mean",55.4 h
same,half-life,"[1]; human, plasma, po, 500 mg, t½, 500 mg Oral Compound 1, fasted, geometric mean",44.9 h
same,half-life,"[1]; human, plasma, po, geometric mean t1/2, range across treatments, 4 oral treatments of Compound 1",44.9 to 64.7 h
same,Tmax,"[1]; human, plasma, po, median tmax, range across doses and study days, oral Compound 1 500 mg and 1000 mg QD × 14 days, fed",2 to 3 h
same,Tmax,"[1]; human, plasma, po, median tmax, range across doses, 4 single oral doses of Compound 1",2 to 3 h
same,"median accumulation, ratio of AUC0-24 on Day 14 to Day 1",[1]; [5],2.95
same,"median accumulation, ratio of Cmax on Day 14 to Day 1",[1]; [5],1.99
same,increase in geometric mean Cmax and AUC0-24 from 500 mg to 1000 mg,"[1]; oral QD × 14 days, Days 1, 7, and 14",~2 fold
same,slope of log-log AUC(inf) vs. dose (power model parameter b),[1]; [6],1.04±0.046
same,slope of log-log Cmax vs. dose (power model parameter b),[1]; [6],0.935±0.077
same,AUC(0-inf),clinical [2],177 µg·h/mL
same,CL/F,clinical [2],0.418 mL/min/kg
same,Cmax,clinical [2],4250 ng/mL
same,Vd/F,clinical [2],161 L and 2.35 L/kg
same,half-life,clinical [2],64.7 h
same,slope of log-log AUC0-24 vs. dose (power model parameter b),[3]; both,1.015±0.043
same,slope of log-log steady-state Cmax vs. dose (power model parameter b),[3]; both,1.039±0.031
same,CL,"[3]; both, iv",0.387 mL/min/kg
same,"median accumulation, ratio of AUC0-24 on Day 14 to Day 1","[3]; both, iv",3.27
same,"median accumulation, ratio of Cmax on Day 14 to Day 1","[3]; both, iv",1.96
same,slope of log-log AUC(inf) versus dose (power model parameter b),"[3]; both, iv",1.01±0.020
same,slope of log-log Cmax versus dose (power model parameter b),"[3]; both, iv",0.929±0.021
same,time at which steady-state is reached,"[3]; both, iv",between Day 7 and Day 14
same,"target plasma exposures (AUC0-24) for clinical efficacy against Candida spp., Aspergillus spp., rare molds",[3]; iv,exceeded
same,clearance,clinical [4],25.7 mL/min and 0.348 mL/min/kg
same,half-life,clinical [4],74.9 h
same,clearance,clinical [4]; CL,31.5 mL/min and 0.45 mL/min/kg
same,half-life,"clinical [4]; geometric mean T1/2, range across treatments",39.2 to 74.9 h
same,half-life,"clinical [4]; geometric mean t1/2, range across cohorts",48 to 69 h
same,half-life,clinical [4]; t½,39.2 h
same,AUC(0-t),"clinical [4]; plasma, 150 mg",51.9 µg·h/mL
same,Cmax,"clinical [4]; plasma, 150 mg",3420 ng/mL
same,Vd,"clinical [4]; plasma, 150 mg",174 L and 2.17 L/kg
same,AUC(0-inf),"clinical [4]; plasma, 350 mg",173 µg·h/mL
same,Cmax,"clinical [4]; plasma, 350 mg",4330 ng/mL
same,Vd,"clinical [4]; plasma, 350 mg",167 L and 2.26 L/kg
